The test system of test [1] is Smad2/Smad3 phosphorylation. As to the kind of experiment: Phospho-Smad2/3 Inhibition Assay (western blot), Panc-1. The test is classed as cell-based, human. To be noted: at 10 μM, Panc-1 pancreatic cancer cell line; starred symbols = activation. In outline:
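Western blotting of lysates (15-50 μg protein) read phosphorylation of Smad2 Ser465/467 and Smad3 Ser423/425. Before lysis, Panc-1 cells got 1 h of 10 ng/ml TGF-b1 following 3 h compound exposure at 37° C (10 μM final, or serial dilutions for IC50, 0.3% DMSO) after overnight 0.5% FBS starvation.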
For orientation: In western blotting, separated proteins are transferred to a membrane and probed.

Test [2] has as its system MiaPaca-2 (expressing KRAS G12C mutant). As to the kind of experiment: Proliferation Assay (Cell Viability Assay). To be noted: Homo sapiens, MIA PaCa-2. The format is cell-based. In outline: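 After 2–4 days' exposure at 37 °C, 5% CO2 to a single 10 μM final concentration or a dilution series (IC50), percent proliferation inhibition was derived from CellTiter 96 Aqueous One viability readings. The medium contained 0.3% DMSO and 10% FBS. KRAS G12C MiaPaca-2 cells were plated at 2000–5000/well the day before.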

For test [3], the system named is TNF-alpha. As to the kind of experiment: TNF-alpha Quantification Assay (ELISA), LPS-stimulated RAW 264.7. The test is classed as cell-based. To be noted: Mus musculus, RAW264.7; at 10 μM; read-out: TNFα: % inh. In general terms: ELISA stands for enzyme-linked immunosorbent assay.
Test [4] relates to IL6. As to the kind of experiment: IL-6 Quantification Assay (ELISA), LPS-stimulated RAW 264.7. The test is classed as cell-based. Also on record: inhibition: dose or concentration left out as unconfirmed. To be noted: Mus musculus, RAW264.7; read-out: IL-6: % inh.
Where [5] appears, read: read-out: Proliferation in MiaPaca-2: IC50.

Like-named read-outs stand apart in the source and are kept apart here. Some results are limits rather than exact numbers.

Here are results for 18 compounds from US12459951B2, “Compounds that interact with RAS superfamily proteins for treatment of cancers, inflammatory diseases, rasopathies, and fibrotic disease” (SHY Therapeutics, LLC, priority 2022, dated 2025).

`CCn1ccc(-c2cn3nc(-c4nccn4C)nc(Nc4cc(OC)ncn4)c3c2C)n1` [Compound 64, 6-(1-Ethyl-1H-pyrazol-3-yl)-N-(6-methoxypyrimidin-4-yl)-5-methyl-2-(1-methyl-1H-imidazol-2-yl)pyrrolo[2,1-f][1,2,4]triazin-4-amine]: the “% inh of Smad2/3 phosphorylation in Panc-1” value (from here on “% inh”) in test [1] was “A (A = 1-25% inhibition)”. Also, the IC50 in test [2] (setting [5]) is < 150 nM. Besides, in test [3], the inhibition at 10 µM turned out to be 0%. For the same compound, the inhibition in test [4] lay within 1 to 24%.

For `Cc1c(-c2ccn(C(C)C)n2)cn2nc(-c3nccn3C)nc(Nc3ccccn3)c12` [Compound 57, 6-(1-Isopropyl-1H-pyrazol-3-yl)-5-methyl-2-(1-methyl-1H-imidazol-2-yl)-N-(pyridin-2-yl)pyrrolo[2,1-f][1,2,4]triazin-4-amine], the “% inh” value in test [1] is given as “A* (A* = 1-25% activation)”. Moreover, the IC50 in test [2] (setting [5]) was < 150 nM. Further, the inhibition at 10 µM in test [3] was 0%. The inhibition in test [4] lay within 1 to 24%.

In the case of `COCC1CCN(c2nc(-c3ccccn3)nn3cc(-c4ccn(C(C)C)n4)c(-c4ccccc4)c23)C1` (racemic) [Compound 25, rac 6-(1-Isopropyl-1H-pyrazol-3-yl)-4-(3-(methoxymethyl)pyrrolidin-1-yl)-5-phenyl-2-(pyridin-2-yl)pyrrolo[2,1-f][1,2,4]triazine], the “% inh” value in test [1] is given as 0 (0 = 0% inhibition). Also, the IC50 in test [2] (setting [5]) is > 1000 nM. Moreover, in test [3], the inhibition at 10 µM lay in the range of 1 to 24%. The inhibition in test [4] was in the range of 1 to 24%.

On to `Cc1c(-c2ccn(C(C)C)n2)cn2nc(-c3nccn3C)nc(Nc3ccncc3)c12` [Compound 52, 6-(1-Isopropyl-1H-pyrazol-3-yl)-5-methyl-2-(1-methyl-1H-imidazol-2-yl)-N-(pyridin-4-yl)pyrrolo[2,1-f][1,2,4]triazin-4-amine], for which the “% inh” value in test [1] is recorded as “D (D = 76-100% inhibition)”. Also, in test [2] (setting [5]), the IC50 was > 1000 nM. Further, the inhibition at 10 µM in test [3] was in the range of 1 to 24%. Also, in test [4], the inhibition came to 0%.

On to `COc1cccc(-c2cn3nc(-c4nccn4C)nc(N[C@@H]4CC[C@@H](OC)C4)c3c2-c2ccccn2)c1F` (racemic) [Compound 46, rac 6-(2-Fluoro-3-methoxyphenyl)-N-((1R,3R)-3-methoxycyclopentyl)-2-(1-methyl-1H-imidazol-2-yl)-5-(pyridin-2-yl)pyrrolo[2,1-f][1,2,4]triazin-4-amine], for which the “% inh” value in test [1] was 0 (0 = 0% inhibition). The IC50 in test [2] (setting [5]) was > 1000 nM. For the same compound, in test [3], the inhibition at 10 µM lay in the range of 75 to 100%. In addition, the inhibition in test [4] fell in the range of 75 to 100%.

For the compound `COc1cccc(Nc2nc(-c3nccn3C)nn3cc(-c4ccn(C(C)C)n4)c(-c4ccccc4)c23)n1` [Compound 23, 6-(1-Isopropyl-1H-pyrazol-3-yl)-N-(6-methoxypyridin-2-yl)-2-(1-methyl-1H-imidazol-2-yl)-5-phenylpyrrolo[2,1-f][1,2,4]triazin-4-amine], in test [1], the “% inh” value is 0 (0 = 0% inhibition). Moreover, the IC50 in test [2] (setting [5]) was > 1000 nM. In addition, the inhibition at 10 µM in test [3] was 75 to 100%. Besides, the inhibition in test [4] lay within 75 to 100%.

For `COc1cccc(-c2cn3nc(-c4nccn4C)nc(N[C@H]4C[C@@H](OC)C4)c3c2-c2ccccc2)c1Cl` [Compound 31, 6-(2-Chloro-3-methoxyphenyl)-N-((1s,3s)-3-methoxycyclobutyl)-2-(1-methyl-1H-imidazol-2-yl)-5-phenylpyrrolo[2,1-f][1,2,4]triazin-4-amine], in test [1], the “% inh” value is “D (D = 76-100% inhibition)”. Moreover, the IC50 in test [2] (setting [5]) is > 1000 nM. Further, the inhibition at 10 µM in test [3] was 75 to 100%. The inhibition in test [4] was 75 to 100%.

Consider `Cc1c(-c2ccn(C)n2)cn2nc(-c3nccn3C)nc(Nc3cc(C(F)(F)F)[nH]n3)c12` [Compound 259, 5-Methyl-2-(1-methyl-1H-imidazol-2-yl)-6-(1-methyl-1H-pyrazol-3-yl)-N-(5-(trifluoromethyl)-1H-pyrazol-3-yl)pyrrolo[2,1-f][1,2,4]triazin-4-amine], for which the “% inh” value in test [1] is recorded as “A (A = 1-25% inhibition)”. Also, in test [2] (setting [5]), the IC50 is > 1000 nM. The inhibition at 10 µM in test [3] was 0%. For the same compound, the inhibition in test [4] fell in the range of 50 to 74%.

Consider `Cc1c(-c2ccn(C)n2)cn2nc(-c3nccn3C)nc(Oc3cc(N)[nH]n3)c12` [Compound 262, 3-((5-Methyl-2-(1-methyl-1H-imidazol-2-yl)-6-(1-methyl-1H-pyrazol-3-yl)pyrrolo[2,1-f][1,2,4]triazin-4-yl)oxy)-1H-pyrazol-5-amine], for which, in test [1], the “% inh” value is recorded as “B* (B* = 26-45% activation)”. In addition, in test [2] (setting [5]), the IC50 was > 1000 nM. In test [3], the inhibition at 10 µM amounted to 0%. Besides, in test [4], the inhibition lay within 1 to 24%.

For the compound `COc1cccc(-c2cn3nc(-c4nccn4C)nc(N[C@H]4C[C@H](OC)C4)c3c2-c2ccn(C)n2)c1F` [Compound 47, 6-(2-Fluoro-3-methoxyphenyl)-N-((1r,3r)-3-methoxycyclobutyl)-2-(1-methyl-1H-imidazol-2-yl)-5-(1-methyl-1H-pyrazol-3-yl)pyrrolo[2,1-f][1,2,4]triazin-4-amine], the “% inh” value in test [1] is on record as “D (D = 76-100% inhibition)”. Moreover, in test [2] (setting [5]), the IC50 is > 1000 nM. In addition, the inhibition at 10 µM in test [3] lay within 1 to 24%. The inhibition in test [4] was determined as 0%.

For `Cc1c(-c2ccn(C)n2)cn2nc(-c3nccn3C)nc(Nc3cc(-c4cccnc4)[nH]n3)c12` [Compound 264, 5-Methyl-2-(1-methyl-1H-imidazol-2-yl)-6-(1-methyl-1H-pyrazol-3-yl)-N-(5-(pyridin-3-yl)-1H-pyrazol-3-yl)pyrrolo[2,1-f][1,2,4]triazin-4-amine], the “% inh” value in test [1] was “A (A = 1-25% inhibition)”. Besides, the IC50 in test [2] (setting [5]) lay in the range of 150 to 500 nM. For the same compound, the inhibition at 10 µM in test [3] fell in the range of 25 to 49%. Also, the inhibition in test [4] fell in the range of 75 to 100%.

Regarding `COc1cccc(-c2cn3nc(-c4nccn4C)nc(N[C@H]4C[C@H](OC)C4)c3c2-c2ccccn2)c1C` [Compound 274, 6-(3-Methoxy-2-methylphenyl)-N-((1r,3r)-3-methoxycyclobutyl)-2-(1-methyl-1H-imidazol-2-yl)-5-(pyridin-2-yl)pyrrolo[2,1-f][1,2,4]triazin-4-amine], the “% inh” value in test [1] is reported as “D (D = 76-100% inhibition)”. For the same compound, in test [2] (setting [5]), the IC50 lay within 150 to 500 nM. Moreover, the inhibition at 10 µM in test [3] fell in the range of 75 to 100%. Moreover, the inhibition in test [4] was 75 to 100%.

On to `COc1cc(-c2cn3nc(-c4nccn4C)nc(Nc4cc(OC)ncn4)c3c2C)ccn1` [Compound 50, 6-(2-Methoxypyridin-4-yl)-N-(6-methoxypyrimidin-4-yl)-5-methyl-2-(1-methyl-1H-imidazol-2-yl)pyrrolo[2,1-f][1,2,4]triazin-4-amine], for which, in test [1], the “% inh” value is “B (B = 26-45% inhibition)”. Further, in test [2] (setting [5]), the IC50 is < 150 nM. Also, the inhibition at 10 µM in test [3] was found to be 0%. Also, the inhibition in test [4] is 1 to 24%.

For `COc1ccc(-c2cn3nc(-c4nccn4C)nc(Nc4cc(OC)ncn4)c3c2C)cn1` [Compound 66, 6-(6-Methoxypyridin-3-yl)-N-(6-methoxypyrimidin-4-yl)-5-methyl-2-(1-methyl-1H-imidazol-2-yl)pyrrolo[2,1-f][1,2,4]triazin-4-amine], in test [1], the “% inh” value is given as “A* (A* = 1-25% activation)”. For the same compound, the IC50 in test [2] (setting [5]) was > 1000 nM. Moreover, in test [3], the inhibition at 10 µM was 1 to 24%. Also, in test [4], the inhibition lay within 1 to 24%.

As for `COc1cccc(Nc2nc(-c3nccn3C)nn3ccc(-c4ccccc4)c23)n1` [Compound 40, N-(6-Methoxypyridin-2-yl)-2-(1-methyl-1H-imidazol-2-yl)-5-phenylpyrrolo[2,1-f][1,2,4]triazin-4-amine], the “% inh” value in test [1] is listed as “B (B = 26-45% inhibition)”. The IC50 in test [2] (setting [5]) is > 1000 nM. Further, the inhibition at 10 µM in test [3] fell in the range of 25 to 49%. Also, the inhibition in test [4] was 75 to 100%.

With `Cc1cc(Nc2nc(-c3nccn3C)nn3cc(-c4ccn(C)n4)c(C)c23)n[nH]1` [Compound 255, 5-Methyl-2-(1-methyl-1H-imidazol-2-yl)-6-(1-methyl-1H-pyrazol-3-yl)-N-(5-methyl-1H-pyrazol-3-yl)pyrrolo[2,1-f][1,2,4]triazin-4-amine], the “% inh” value in test [1] is recorded as “D* (D* = 76-100% activation)”. Further, the IC50 is 1 to 10 nM in test [2] (Proliferation assay, MiaPaca-2, read-out: MiaPaca-2 IC50 (nM) Pancreatic) and < 150 nM in test [2] (setting [5]). For the same compound, the inhibition at 10 µM in test [3] lay within 1 to 24%. In test [4], the inhibition was in the range of 50 to 74%.

On to `Cc1c(-c2ccn(C(C)C)n2)cn2nc(-c3nccn3C)nc(Nc3cc(C4CC4)no3)c12` [Compound 69, 3-Cyclopropyl-N-(6-(1-isopropyl-1H-pyrazol-3-yl)-5-methyl-2-(1-methyl-1H-imidazol-2-yl)pyrrolo[2,1-f][1,2,4]triazin-4-yl)isoxazol-5-amine], for which the “% inh” value in test [1] was “A (A = 1-25% inhibition)”. In test [2] (setting [5]), the IC50 was > 1000 nM. In test [3], the inhibition at 10 µM was 1 to 24%. Further, the inhibition in test [4] lay in the range of 50 to 74%.

In the case of `Cc1c(-c2ccn(C)n2)cn2nc(-c3nccn3C)nc(N3CCc4cc(C(F)(F)F)cnc43)c12` [Compound 251, 5-Methyl-2-(1-methyl-1H-imidazol-2-yl)-6-(1-methyl-1H-pyrazol-3-yl)-4-(5-(trifluoromethyl)-2,3-dihydro-1H-pyrrolo[2,3-b]pyridin-1-yl)pyrrolo[2,1-f][1,2,4]triazine], the “% inh” value in test [1] is “A* (A* = 1-25% activation)”. In addition, the IC50 in test [2] (setting [5]) is > 1000 nM.
